Laboratory results from PubChem BioAssay AID2060903 (Molecular Pharmacology Branch, DTP, NCI, 2025).

Tested on: 377384-186-R-J1-PDC complex spheroid viability
Experiment: Anticancer human tumor 377384-186-R-J1-PDC patient-derived pancreatic carcinoma cell line growth inhibition [RAS]
Settings: for IC50: curve of first compound; for viability, T/C: stronger effect = lower value
Excerpt: RAS pathway inhibitors in Combinations in Complex Spheroids
A high-throughput screen of multi-cell type tumor spheroids was designed to identify active combinations of RAS pathway inhibitors and targeted small molecules. Complex spheroids include a stromal component modeled by human endothelial cells (HUVEC) and fibroblasts modeled by human mesenchymal stem cells (MSCs). The concentration ranges selected for each drug and investigational agent were based upon clinically achievable concentrations if the clinical Cmax of the agent was known.
Compounds. The drugs and investigational agents: abemaciclib (NSC768073), cobimetinib (NSC768068), divarasib (GDC6063, NSC841802), docetaxel (NSC628503), GDC-1971 (RLY-1971, NSC841576), gemcitabine (NSC613327), inavolisib (NSC800729), ipatasertib (NSC767898), KB-0742 (NSC834161), MRTX-1133 (NSC836407), osimertinib (NSC779217), RMC-4630 (NSC839698), RMC-6236 (NSC851965), RMC-6291 (NSC852671), Ro-3306 (NSC812927), sapanisertib (NSC764658), SN-38 (NSC673596), staurosporine (NSC755774), SY5609 (NSC837396), and tovorafenib (DAY101, NSC766906), were obtained from the National Cancer Institute (NCI) Developmental Therapeutics Program Chemical Repository. The FDA-approved anticancer drug set is available from the NCI Developmental Therapeutics Program. […] The stock solutions were prepared in dimethyl sulfoxide (DMSO, Sigma-Aldrich, St. Louis, MO, cat. D2650) at 800-fold the tested concentration and stored at -70 degrees C prior to their use. All drugs and investigational agents were tested over a range starting from a high concentration at or near the clinical Cmax and decreasing in half-log increments. If the clinical Cmax for an agent had not been determined, the highest concentration tested was 10 microM.
Cell Culture. All cells were maintained in an incubator at 37 degrees C and 5% CO2 with 95% humidity. The PDC lines were cultured according to standard operating procedures established by the NCI PDMR. All PDCs were thawed and cultured in Matrigel-coated flasks prepared with a working solution of 1X Ham's F-12 nutrient mix, without supplementation (Invitrogen, Waltham, MA, cat. 11765054), 100 U/mL penicillin-streptomycin (Invitrogen, cat. 15140122), and 2.5% Matrigel (Corning Inc., Corning, NY, cat. 354248) for the first three passages. The 362531-283-R-J2-PDC and 782815-120-R-J1-PDC lines were cultured in 6C/Colon 1B media, which includes advanced DMEM/F-12 (Thermo Fisher Scientific, cat. 12634028), 10 mM HEPES (Thermo Fisher Scientific, cat. 15630080), 1X GlutaMAX supplement (Thermo Fisher Scientific, cat. 35050061), 0.1 mg/mL primocin (InvivoGen, San Diego, CA, cat. ant-pm-2), 10% defined fetal bovine serum, heat inactivated (HyClone Laboratories Inc., Logan, UT, cat. SH30070.03HI), 50% L-WRN conditioned media (ATCC, cat. CRL-3276), 1.25 mM N-Acetyl-L-cysteine (Sigma-Aldrich, cat. A9165), 10 mM nicotinamide (Sigma-Aldrich, cat. N0636), 1X B-27 supplement (Thermo Fisher Scientific, cat. 17504044), 1X N-2 supplement (Thermo Fisher Scientific, cat. 17502048), 50 ng/mL human EGF (Thermo Fisher Scientific, cat. PHG0311), and 10 microM Y-27632 dihydrochloride (Tocris Bioscience, cat. 1254). The K12877-001-R-J1-PDC line was cultured in 6I media, which includes all 6C/Colon 1B media plus 10 ng/mL human FGF-10 (PeproTech, cat. 100-26), 1 ng/mL human FGF-2 (PeproTech, cat. 100-18B), 1 µM prostaglandin E2 (Tocris Bioscience, cat. 2296), […] hydrocortisone (Sigma-Aldrich, cat. H4001), and […] bovine insulin (Sigma-Aldrich, cat. I6634). The K86415-001-R-J1-PDC line was cultured in 6D media, which includes all 6C/Colon 1B media components minus the L-WRN conditioned media. The 485176-168-R4-J1-PDC was cultured in PANC media, which includes all 6C/Colon 1B media plus 100 ng/mL human FGF-10 (PeproTech, cat. 100-26), 500 nM SB-431542 (Selleckchem, cat. S1067), and 10 nM gastrin (Tocris Bioscience, cat. 3006). […]
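Further: spheroids exposed to compounds for seven days before readout.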

CC(C)NCC(C(=O)N1CCN(c2ncnc3c2C(C)CC3O)CC1)c1ccc(Cl)cc1 (configuration not stated) + CCn1c(-c2cc(N3CCN(C)CC3)cnc2C(C)OC)c2c3cc(ccc31)-c1csc(n1)CC(NC(=O)C1CC1C)C(=O)N1CCCC(N1)C(=O)OCC(C)(C)C2
IC50 (second compound 0.000949 µM): 126 nM | IC50 (second compound 0.003 µM): < 31.6 nM | IC50 (second compound 0.00949 µM): < 31.6 nM | IC50 (second compound 0.03 µM): < 31.6 nM | IC50 (second compound 0.0949 µM): < 31.6 nM | IC50 (second compound 0.3 µM): < 31.6 nM | viability, T/C (second compound 0.000949 µM, first compound 0.0316 µM): 60.4% | viability, T/C (second compound 0.000949 µM, first compound 0.1 µM): 54.6% | viability, T/C (second compound 0.000949 µM, first compound 0.316 µM): 38.6% | viability, T/C (second compound 0.000949 µM, first compound 1 µM): 34.1% | viability, T/C (second compound 0.000949 µM, first compound 3.16 µM): 34.1% | viability, T/C (second compound 0.000949 µM, first compound 10 µM): 19% | viability, T/C (second compound 0.003 µM, first compound 0.0316 µM): 19.6% | viability, T/C (second compound 0.003 µM, first compound 0.1 µM): 21.2% | viability, T/C (second compound 0.003 µM, first compound 0.316 µM): 17.9% | viability, T/C (second compound 0.003 µM, first compound 1 µM): 16.4% | viability, T/C (second compound 0.003 µM, first compound 3.16 µM): 12.7% | viability, T/C (second compound 0.003 µM, first compound 10 µM): 8.24% | viability, T/C (second compound 0.00949 µM, first compound 0.0316 µM): 5.67% | viability, T/C (second compound 0.00949 µM, first compound 0.1 µM): 5.95% | viability, T/C (second compound 0.00949 µM, first compound 0.316 µM): 5.17% | viability, T/C (second compound 0.00949 µM, first compound 1 µM): 7.15% | viability, T/C (second compound 0.00949 µM, first compound 3.16 µM): 6.27% | viability, T/C (second compound 0.00949 µM, first compound 10 µM): 3.27% | viability, T/C (second compound 0.03 µM, first compound 0.0316 µM): 3.25% | viability, T/C (second compound 0.03 µM, first compound 0.1 µM): 2.3% | viability, T/C (second compound 0.03 µM, first compound 0.316 µM): 2.13% | viability, T/C (second compound 0.03 µM, first compound 1 µM): 1.68% | viability, T/C (second compound 0.03 µM, first compound 3.16 µM): 1.07% | viability, T/C (second compound 0.03 µM, first compound 10 µM): 0.92% | viability, T/C (second compound 0.0949 µM, first compound 0.0316 µM): 1.84% | viability, T/C (second compound 0.0949 µM, first compound 0.1 µM): 1.86% | viability, T/C (second compound 0.0949 µM, first compound 0.316 µM): 1.46% | viability, T/C (second compound 0.0949 µM, first compound 1 µM): 1.22% | viability, T/C (second compound 0.0949 µM, first compound 3.16 µM): 0.74% | viability, T/C (second compound 0.0949 µM, first compound 10 µM): 0.17% | viability, T/C (second compound 0.3 µM, first compound 0.0316 µM): 2% | viability, T/C (second compound 0.3 µM, first compound 0.1 µM): 2.02% | viability, T/C (second compound 0.3 µM, first compound 0.316 µM): 1.61% | viability, T/C (second compound 0.3 µM, first compound 1 µM): 0.77% | viability, T/C (second compound 0.3 µM, first compound 3.16 µM): 0.64% | viability, T/C (second compound 0.3 µM, first compound 10 µM): 0.3%
